Laboratory results reported in patent publication US6562756B1, “Herbicidal compositions” (Nissan Chemical Industries, Ltd., priority 1999, dated 2003).

Legend:
Type in all cases: in vivo
maize = test: Test on phytotoxicity to maize sown at a shallow sowing depth (soil treatment, pot test); settings: for Fresh weight ratio with respect to untreated plants: maize sown at 1 cm depth, 17 days after application; for phytotoxicities to maize sown at a shallow sowing depth caused by Compound (A1), (A2), (A3) or (A4): effect of the safener: summary in words of Table 1
Protocol: Cylindrical pots having an inner diameter of about 11 cm and a depth of 10 cm were charged with sterilized upland soil. In each pot, three seeds of maize were separately seeded at a sowing depth of 1 cm. On the day of seeding, wettable powder appropriately formulated according to the above Formulation Examples was diluted with water and then applied with a small type sprayer at a spray volume of 10 liter/are. Seventeen days after the application, the fresh weight of aerial parts of each plant was determined and then compared with those of untreated plants.

[1] = test system: velvetleaf (Abutilon theophrasti); test: Test on herbicidal effects by soil treatment: velvetleaf; settings: four weeks after application
Protocol: (§1) Plastic cases having a size of 30 cm (length), 30 cm (width) and 10 cm (depth) were charged with sterilized upland soil. In each plastic case, seeds of velvetleaf (Abutilon theophrasti), common lambsquarters (Chenopodium album), redroot pigweed (Amaranthus viridis) and common ragweed (Ambrosia artemisiaefolia) were seeded, and covered with soil of 0.5 cm thickness. On the day of seeding, wettable powder appropriately formulated according to the above Formulation Examples was diluted with water and then applied with a small type sprayer at a spray volume of 10 liter/are. Four weeks after the application, the fresh weight of aerial parts of each weed was determined and then compared with those of untreated weed.

[2] = test system: common lambsquarters (Chenopodium album); test: Test on herbicidal effects by soil treatment: common lambsquarters; settings: four weeks after application
Protocol: as §1

[3] = test system: redroot pigweed (Amaranthus viridis); test: Test on herbicidal effects by soil treatment: redroot pigweed; settings: four weeks after application
Protocol: as §1

[4] = test system: common ragweed (Ambrosia artemisiaefolia); test: Test on herbicidal effects by soil treatment: common ragweed; settings: four weeks after application
Protocol: as §1

weeds = test: Test on herbicidal effects by soil treatment: summary over the weeds; settings: summary in words of Table 2
Protocol: as §1

`CCS(=O)(=O)Nc1cc(-n2c(=O)cc(C(F)(F)F)n(C)c2=O)c(F)cc1Cl` [Compound (A1)] was tested, and the “Fresh weight ratio with respect to untreated plants” value (maize; 40 g/ha) was 70%, the “Fresh weight ratio with respect to untreated plants” value (maize; 80 g/ha) was 55% and the “Fresh weight ratio with respect to untreated weeds, A.th” value (from here on “Fresh weight ratio … A.th”) ([1]; 5 g/ha) was 26%. For the same compound, the “Fresh weight ratio … A.th” value ([1]; 10 g/ha) was 2%, the “Fresh weight ratio with respect to untreated weeds, C.al” value (“Fresh weight ratio … C.al” below) ([2]; 5 g/ha) was 13% and the “Fresh weight ratio … C.al” value ([2]; 10 g/ha) was 0%. For the same compound, the “Fresh weight ratio with respect to untreated weeds, A.vi” value (shortened to “Fresh weight ratio … A.vi”) ([3]; 5 g/ha) was 5%, the “Fresh weight ratio … A.vi” value ([3]; 10 g/ha) was 0% and the “Fresh weight ratio with respect to untreated weeds, A.ar” value (“Fresh weight ratio … A.ar” for short) ([4]; 5 g/ha) was 31%. For the same compound, the “Fresh weight ratio … A.ar” value ([4]; 10 g/ha) was 7% and the “herbicidal activities in the presence of Compound (B), (C), (D) or (E)” value (“herbicidal activities in the presence” below) (weeds) was “not decreased”.
For `Cn1c(C(F)(F)F)cc(=O)n(-c2cc(NS(C)(=O)=O)c(C#N)cc2F)c1=O` [Compound (A2)], the “Fresh weight ratio with respect to untreated plants” value (maize; 40 g/ha) was 90%, the “Fresh weight ratio with respect to untreated plants” value (maize; 80 g/ha) was 76% and the “Fresh weight ratio … A.th” value ([1]; 5 g/ha) was 32%. For the same compound, the “Fresh weight ratio … A.th” value ([1]; 10 g/ha) was 4%, the “Fresh weight ratio … C.al” value ([2]; 5 g/ha) was 18% and the “Fresh weight ratio … C.al” value ([2]; 10 g/ha) was 0%. For the same compound, the “Fresh weight ratio … A.vi” value ([3]; 5 g/ha) was 9%, the “Fresh weight ratio … A.vi” value ([3]; 10 g/ha) was 0% and the “Fresh weight ratio … A.ar” value ([4]; 5 g/ha) was 40%. For the same compound, the “Fresh weight ratio … A.ar” value ([4]; 10 g/ha) was 10% and the “herbicidal activities in the presence” value (weeds) was “not decreased”.
`CCS(=O)(=O)N(C(=O)C(C)(C)C)c1cc(-n2c(=O)cc(C(F)(F)F)n(C)c2=O)c(F)cc1C#N` [Compound (A3)] was tested, and the “Fresh weight ratio with respect to untreated plants” value (maize; 40 g/ha) was 84%, the “Fresh weight ratio with respect to untreated plants” value (maize; 80 g/ha) was 60% and the “Fresh weight ratio … A.th” value ([1]; 5 g/ha) was 24%. The “Fresh weight ratio … A.th” value ([1]; 10 g/ha) was 1%, the “Fresh weight ratio … C.al” value ([2]; 5 g/ha) was 15% and the “Fresh weight ratio … C.al” value ([2]; 10 g/ha) was 0%. The “Fresh weight ratio … A.vi” value ([3]; 5 g/ha) was 6%, the “Fresh weight ratio … A.vi” value ([3]; 10 g/ha) was 0% and the “Fresh weight ratio … A.ar” value ([4]; 5 g/ha) was 37%. The “Fresh weight ratio … A.ar” value ([4]; 10 g/ha) was 11% and the “herbicidal activities in the presence” value (weeds) was “not decreased”.
With `CCS(=O)(=O)N(C(=O)c1ccc(OC)cc1)c1cc(-n2c(=O)cc(C(F)(F)F)n(C)c2=O)c(F)cc1Cl` [Compound (A4)] the “Fresh weight ratio with respect to untreated plants” value (maize; 40 g/ha) was 73%, the “Fresh weight ratio with respect to untreated plants” value (maize; 80 g/ha) was 57% and the “Fresh weight ratio … A.th” value ([1]; 5 g/ha) was 27%. For the same compound, the “Fresh weight ratio … A.th” value ([1]; 10 g/ha) was 5%, the “Fresh weight ratio … C.al” value ([2]; 5 g/ha) was 17% and the “Fresh weight ratio … C.al” value ([2]; 10 g/ha) was 0%. For the same compound, the “Fresh weight ratio … A.vi” value ([3]; 5 g/ha) was 9%, the “Fresh weight ratio … A.vi” value ([3]; 10 g/ha) was 0% and the “Fresh weight ratio … A.ar” value ([4]; 5 g/ha) was 40%. For the same compound, the “Fresh weight ratio … A.ar” value ([4]; 10 g/ha) was 14% and the “herbicidal activities in the presence” value (weeds) was “not decreased”.
With `CC1(C)OC(c2ccco2)CN1C(=O)C(Cl)Cl` (stereo not shown) [Compound (B)] the “Fresh weight ratio with respect to untreated plants” value (maize; 40 g/ha) was 100%, the “Fresh weight ratio with respect to untreated plants” value (maize; 80 g/ha) was 100% and the “phytotoxicities to maize sown at a shallow sowing depth caused by Compound (A1), (A2), (A3) or (A4): effect of the safener” value (“phytotoxicities to maize sown” for short) (maize) was “remarkably reduced”. For the same compound, the “Fresh weight ratio … A.th” value ([1]; 5 g/ha) was 100%, the “Fresh weight ratio … A.th” value ([1]; 10 g/ha) was 100% and the “Fresh weight ratio … C.al” value ([2]; 5 g/ha) was 100%. The “Fresh weight ratio … C.al” value ([2]; 10 g/ha) was 100%, the “Fresh weight ratio … A.vi” value ([3]; 5 g/ha) was 100% and the “Fresh weight ratio … A.vi” value ([3]; 10 g/ha) was 100%. For the same compound, the “Fresh weight ratio … A.ar” value ([4]; 5 g/ha) was 100% and the “Fresh weight ratio … A.ar” value ([4]; 10 g/ha) was 100%.
For `CC1(C)CN2C(=O)CCC2(C)N(C(=O)C(Cl)Cl)C1` (stereo not shown) [Compound (C)], the “Fresh weight ratio with respect to untreated plants” value (maize; 40 g/ha) was 100%, the “Fresh weight ratio with respect to untreated plants” value (maize; 80 g/ha) was 100% and the “phytotoxicities to maize sown” value (maize) was “remarkably reduced”. The “Fresh weight ratio … A.th” value ([1]; 5 g/ha) was 100%, the “Fresh weight ratio … A.th” value ([1]; 10 g/ha) was 100% and the “Fresh weight ratio … C.al” value ([2]; 5 g/ha) was 100%. For the same compound, the “Fresh weight ratio … C.al” value ([2]; 10 g/ha) was 100%, the “Fresh weight ratio … A.vi” value ([3]; 5 g/ha) was 100% and the “Fresh weight ratio … A.vi” value ([3]; 10 g/ha) was 100%. The “Fresh weight ratio … A.ar” value ([4]; 5 g/ha) was 100% and the “Fresh weight ratio … A.ar” value ([4]; 10 g/ha) was 100%.
In the case of `O=C(C(Cl)Cl)N1CCOC12CCCCC2` [Compound (D)], the “Fresh weight ratio with respect to untreated plants” value (maize; 40 g/ha) was 100%, the “Fresh weight ratio with respect to untreated plants” value (maize; 80 g/ha) was 100% and the “phytotoxicities to maize sown” value (maize) was “remarkably reduced”. The “Fresh weight ratio … A.th” value ([1]; 5 g/ha) was 100%, the “Fresh weight ratio … A.th” value ([1]; 10 g/ha) was 100% and the “Fresh weight ratio … C.al” value ([2]; 5 g/ha) was 100%. For the same compound, the “Fresh weight ratio … C.al” value ([2]; 10 g/ha) was 100%, the “Fresh weight ratio … A.vi” value ([3]; 5 g/ha) was 100% and the “Fresh weight ratio … A.vi” value ([3]; 10 g/ha) was 100%. For the same compound, the “Fresh weight ratio … A.ar” value ([4]; 5 g/ha) was 100% and the “Fresh weight ratio … A.ar” value ([4]; 10 g/ha) was 100%.
For `CC1COc2ccccc2N1C(=O)C(Cl)Cl` (stereo not shown) [Compound (E)], the “Fresh weight ratio with respect to untreated plants” value (maize; 40 g/ha) was 100%, the “Fresh weight ratio with respect to untreated plants” value (maize; 80 g/ha) was 100% and the “phytotoxicities to maize sown” value (maize) was “remarkably reduced”. The “Fresh weight ratio … A.th” value ([1]; 5 g/ha) was 100%, the “Fresh weight ratio … A.th” value ([1]; 10 g/ha) was 100% and the “Fresh weight ratio … C.al” value ([2]; 5 g/ha) was 100%. For the same compound, the “Fresh weight ratio … C.al” value ([2]; 10 g/ha) was 100%, the “Fresh weight ratio … A.vi” value ([3]; 5 g/ha) was 100% and the “Fresh weight ratio … A.vi” value ([3]; 10 g/ha) was 100%. The “Fresh weight ratio … A.ar” value ([4]; 5 g/ha) was 100% and the “Fresh weight ratio … A.ar” value ([4]; 10 g/ha) was 100%.
